The source of these data is the supplement of paper PMC10307832.

Test in all cases: relative viability (nuclei count vs DMSO), 5 days (fraction); higher = more cells survive
Compound in the assay “Axitinib + Dasatinib”: CNC(=O)c1ccccc1Sc1ccc2c(/C=C/c3ccccn3)n[nH]c2c1 [Axitinib] + Cc1nc(Nc2ncc(C(=O)Nc3c(C)cccc3Cl)s2)cc(N2CCN(CCO)CC2)n1 [Dasatinib] (partner 0.075 µM)
Summed up:
(§1)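 Lung cancer cell lines in 1536-well plates got either a single drug or a fixed anchor-drug dose together with five library-drug doses (not always all listed) in √10 steps, by pin tool, on the day after seeding. Nuclei were counted after 5 days, and relative viability is the treated-to-vehicle ratio of nuclei counts. Values are medians of duplicate plates.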

Compound in the assay “Bemcentinib + Decitabine”: Nc1nc(Nc2ccc3c(c2)CC[C@@H](N2CCCC2)CC3)nn1-c1cc2c(nn1)-c1ccccc1CCC2 [Bemcentinib] + Nc1ncn([C@H]2C[C@H](O)[C@@H](CO)O2)c(=O)n1 [Decitabine] (partner 2 µM)
Summed up:
as §1

Compound in the assay “Axitinib + AZD7762”: CNC(=O)c1ccccc1Sc1ccc2c(/C=C/c3ccccn3)n[nH]c2c1 [Axitinib] + NC(=O)Nc1cc(-c2cccc(F)c2)sc1C(=O)N[C@H]1CCCNC1 [AZD7762] (partner 0.2 µM)
Summed up:
as §1

Compound in the assay “Axitinib + Phenformin”: CNC(=O)c1ccccc1Sc1ccc2c(/C=C/c3ccccn3)n[nH]c2c1 [Axitinib] + N=C(N)NC(=N)NCCc1ccccc1 [Phenformin] (partner 250 µM)
In a few lines:
as §1

With EMC-BAC-2, the relative viability turned out to be 0.353 with Axitinib + Dasatinib (first compound 0.005 µM); 0.327 with Axitinib + Dasatinib (first compound 0.01581 µM); 0.315 in the assay with Axitinib + Dasatinib (first compound 0.05 µM); 0.379 in the assay with Axitinib + Dasatinib (first compound 0.1581 µM); 0.383 with Axitinib + Dasatinib (first compound 0.5 µM); 0.955 with Bemcentinib + Decitabine (first compound 0.04 µM). The relative viability with Bemcentinib + Decitabine (first compound 0.1265 µM) came out at 1; with Bemcentinib + Decitabine (first compound 0.4 µM), 1.12; in the assay with Bemcentinib + Decitabine (first compound 1.265 µM) it was 0.997; with Bemcentinib + Decitabine (first compound 4 µM) it was 1.01; with Axitinib + AZD7762 (first compound 0.005 µM), 1.07; with Axitinib + AZD7762 (first compound 0.01581 µM), 1.1. In addition, the relative viability came out at 1.06 with Axitinib + AZD7762 (first compound 0.05 µM); 1.1 with Axitinib + AZD7762 (first compound 0.1581 µM); 1.11 with Axitinib + AZD7762 (first compound 0.5 µM); 0.552 with Axitinib + Phenformin (first compound 0.005 µM); 0.535 with Axitinib + Phenformin (first compound 0.01581 µM); 0.483 with Axitinib + Phenformin (first compound 0.05 µM). In addition, the relative viability with Axitinib + Phenformin (first compound 0.1581 µM) is 0.547; with Axitinib + Phenformin (first compound 0.5 µM), 0.57.
For EPLC-272H, the relative viability with Axitinib + Dasatinib (first compound 0.005 µM) stood at 0.342; in the assay with Axitinib + Dasatinib (first compound 0.01581 µM), 0.337; with Axitinib + Dasatinib (first compound 0.05 µM), 0.372; in the assay with Axitinib + Dasatinib (first compound 0.1581 µM) it was 0.353; with Axitinib + Dasatinib (first compound 0.5 µM) it was 0.241; with Bemcentinib + Decitabine (first compound 0.04 µM), 0.373. For the same cell line, the relative viability in the assay with Bemcentinib + Decitabine (first compound 0.1265 µM) was 0.361; with Bemcentinib + Decitabine (first compound 0.4 µM) it was 0.387; in the assay with Bemcentinib + Decitabine (first compound 1.265 µM) it was 0.397; with Bemcentinib + Decitabine (first compound 4 µM) it was 0.399; with Axitinib + AZD7762 (first compound 0.005 µM), 0.245; in the assay with Axitinib + AZD7762 (first compound 0.01581 µM) it was 0.165. Also, the relative viability with Axitinib + AZD7762 (first compound 0.05 µM) was 0.269; with Axitinib + AZD7762 (first compound 0.1581 µM), 0.234; in the assay with Axitinib + AZD7762 (first compound 0.5 µM), 0.197; with Axitinib + Phenformin (first compound 0.005 µM), 0.324; in the assay with Axitinib + Phenformin (first compound 0.01581 µM), 0.326; in the assay with Axitinib + Phenformin (first compound 0.05 µM) it was 0.341. Further, the results for the relative viability with Axitinib + Phenformin (first compound 0.1581 µM) and with Axitinib + Phenformin (first compound 0.5 µM) were 0.279 and 0.304, respectively.
H3255: the relative viability in the assay with Axitinib + Dasatinib (first compound 0.005 µM) worked out at 0.351; with Axitinib + Dasatinib (first compound 0.01581 µM) it was 0.341; with Axitinib + Dasatinib (first compound 0.05 µM), 0.359; with Axitinib + Dasatinib (first compound 0.1581 µM), 0.38; with Axitinib + Dasatinib (first compound 0.5 µM), 0.373; with Bemcentinib + Decitabine (first compound 0.1265 µM), 0.574. Further, the relative viability with Bemcentinib + Decitabine (first compound 0.4 µM) worked out at 0.681; with Bemcentinib + Decitabine (first compound 1.265 µM) it was 0.648; with Bemcentinib + Decitabine (first compound 4 µM), 0.68; in the assay with Axitinib + AZD7762 (first compound 0.005 µM), 0.841; with Axitinib + AZD7762 (first compound 0.01581 µM), 0.734; with Axitinib + AZD7762 (first compound 0.05 µM), 0.891. The relative viability with Axitinib + AZD7762 (first compound 0.1581 µM) is 0.915; in the assay with Axitinib + AZD7762 (first compound 0.5 µM), 0.879; with Axitinib + Phenformin (first compound 0.005 µM), 0.368; with Axitinib + Phenformin (first compound 0.01581 µM), 0.236; with Axitinib + Phenformin (first compound 0.05 µM), 0.335; with Axitinib + Phenformin (first compound 0.1581 µM), 0.358. In addition, the relative viability with Axitinib + Phenformin (first compound 0.5 µM) was 0.377.
On to HARA, for which the relative viability with Axitinib + Dasatinib (first compound 0.005 µM) amounted to 0.211; in the assay with Axitinib + Dasatinib (first compound 0.01581 µM) it was 0.2; in the assay with Axitinib + Dasatinib (first compound 0.05 µM) it was 0.293; with Axitinib + Dasatinib (first compound 0.1581 µM) it was 0.246; in the assay with Axitinib + Dasatinib (first compound 0.5 µM), 0.253; with Bemcentinib + Decitabine (first compound 0.04 µM), 0.578. Also, the relative viability was found to be 0.651 with Bemcentinib + Decitabine (first compound 0.1265 µM); 0.561 with Bemcentinib + Decitabine (first compound 0.4 µM); 0.556 in the assay with Bemcentinib + Decitabine (first compound 1.265 µM); 0.518 with Bemcentinib + Decitabine (first compound 4 µM); 0.315 in the assay with Axitinib + AZD7762 (first compound 0.005 µM); 0.447 in the assay with Axitinib + AZD7762 (first compound 0.01581 µM). In addition, the relative viability with Axitinib + AZD7762 (first compound 0.05 µM) came to 0.369; with Axitinib + AZD7762 (first compound 0.1581 µM) it was 0.348; with Axitinib + AZD7762 (first compound 0.5 µM), 0.313; with Axitinib + Phenformin (first compound 0.005 µM), 0.421; with Axitinib + Phenformin (first compound 0.01581 µM), 0.412; in the assay with Axitinib + Phenformin (first compound 0.05 µM), 0.493. Further, the relative viability came out at 0.392 in the assay with Axitinib + Phenformin (first compound 0.1581 µM) and 0.488 with Axitinib + Phenformin (first compound 0.5 µM).
